Reference: US6632806B1, “Neurologically-active compounds” (The University of Sydney, priority 1997, dated 2003)
“And” between values parts separate entries of the source, which are not always exact repeats. Equal entries are not always repeated. Where two headings read alike, the source gives them in different places. Marks after values point to notes of the source that are not given here.

Columns and labels:
GABAA [1] = system: T1, GABAA; conditions: [3H]muscimol binding (Froestl et al, 1995a; 1995b), cited from earlier work
T1 construct: Activity at GABAA; other: Woodward et al, 1993; GABAA Kb; other: Ragozzino et al (1996); other: PMPA; source not given, column fo

[2] = molecular target: human r1 receptors (GABAC receptors) (Homo sapiens, UniProt P24046); experiment: Two-electrode voltage clamp recording of human r1 GABAC receptors expressed in Xenopus oocytes; conditions: for Activation of the receptor by compound alone / Effect on GABA response when co-applied with GABA (1 μM): FIG. 1; for IC50: IC50 (concentration that inhibits 50% of the response produced by 1 μM GABA), 1 μM GABA; for Mode of antagonism: Schild analysis; for EC50: r1 receptors in Xenopus oocytes, clamped at −60 mV
Method: The plasmid was linearized with XbaI and cRNA made using the “Message Machine” kit from Ambion Inc. (Austin, Tex., USA). 50 ng of cRNA was injected into defolliculated Stage V Xenopus oocytes. Two to seven days later, receptor activity was measured by two-electrode voltage clamp recording, using a Geneclamp 500 amplifier (Axon Instruments Inc., Foster City, Calif., USA) and a MacLab 2e recorder (ADInstruments, Sydney, NSW, Australia). […] For receptor activation measurements, the indicated concentrations of agonist and antagonist were added to ND96.

GABAA [3] = system: T1, GABAA; conditions: Na-independent [3H]GABA binding (Johnston et al, 1978); read-out: GABAA receptor affinity, IC50; cited from earlier work
GABAC receptors = conditions: Woodward et al, 1993, cited from earlier work; for Kd: Johnston, 1996b, read-out: KD (agonist); for Kb: read-out: KB (antagonist)
GABAC (human r1) = molecular target: T2, GABAC (human r1) (Homo sapiens, UniProt P24046); conditions: data from Murata et al, 1996; cited from earlier work
T2 construct: host or cells: Xenopus oocytes expressing human r1 mRNA

GABAB [4] = molecular target: T3, GABAB (Rattus norvegicus, UniProt Q9Z0U4); set-up: from tissue; host or cells: rat cortical membranes / neocortical slices; values largely from the literature; conditions: [3H]CGP27492 binding (Froestl et al; Bittiger et al; Olpe et al); read-out: GABAB receptor affinity, IC50; cited from earlier work
human rho-2 receptors = human rho-2 receptors (Homo sapiens, UniProt P28476); experiment: Antagonist KB at human homo-oligomeric rho-2 GABAC receptors; assay type: cell-based; conditions: human rho-2
GABAA [5] = molecular target: T1, GABAA; experiment: Inhibition of [3H]muscimol binding using rat cortical membranes; conditions: PMPA; source not given, column footnote is [3H]muscimol binding; read-out: GABAA receptor affinity, IC50
GABAB [6] = molecular target: T3, GABAB; experiment: Frequency of spontaneous discharges in neocortical slices, grease-gap recording; set-up: from tissue; host or cells: rat cortical membranes / neocortical slices; values largely from the literature; conditions: read-out: GABAB receptor affinity

Sequence of human r1 receptors (GABAC receptors) (P24046 22-479): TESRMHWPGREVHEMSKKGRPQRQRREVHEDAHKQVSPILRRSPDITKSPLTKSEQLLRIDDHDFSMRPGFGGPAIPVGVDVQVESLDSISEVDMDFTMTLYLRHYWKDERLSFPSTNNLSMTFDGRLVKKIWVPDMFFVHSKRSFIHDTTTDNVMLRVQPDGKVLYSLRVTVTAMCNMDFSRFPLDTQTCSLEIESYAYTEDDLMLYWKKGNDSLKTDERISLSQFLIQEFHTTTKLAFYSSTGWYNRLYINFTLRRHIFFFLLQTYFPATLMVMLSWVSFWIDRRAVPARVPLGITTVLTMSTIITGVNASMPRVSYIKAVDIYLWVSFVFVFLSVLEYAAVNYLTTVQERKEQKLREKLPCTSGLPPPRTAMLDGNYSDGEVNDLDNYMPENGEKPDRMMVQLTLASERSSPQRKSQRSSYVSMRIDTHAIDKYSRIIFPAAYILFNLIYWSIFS
T3 sequence (Q9Z0U4 17-960 limits assumed): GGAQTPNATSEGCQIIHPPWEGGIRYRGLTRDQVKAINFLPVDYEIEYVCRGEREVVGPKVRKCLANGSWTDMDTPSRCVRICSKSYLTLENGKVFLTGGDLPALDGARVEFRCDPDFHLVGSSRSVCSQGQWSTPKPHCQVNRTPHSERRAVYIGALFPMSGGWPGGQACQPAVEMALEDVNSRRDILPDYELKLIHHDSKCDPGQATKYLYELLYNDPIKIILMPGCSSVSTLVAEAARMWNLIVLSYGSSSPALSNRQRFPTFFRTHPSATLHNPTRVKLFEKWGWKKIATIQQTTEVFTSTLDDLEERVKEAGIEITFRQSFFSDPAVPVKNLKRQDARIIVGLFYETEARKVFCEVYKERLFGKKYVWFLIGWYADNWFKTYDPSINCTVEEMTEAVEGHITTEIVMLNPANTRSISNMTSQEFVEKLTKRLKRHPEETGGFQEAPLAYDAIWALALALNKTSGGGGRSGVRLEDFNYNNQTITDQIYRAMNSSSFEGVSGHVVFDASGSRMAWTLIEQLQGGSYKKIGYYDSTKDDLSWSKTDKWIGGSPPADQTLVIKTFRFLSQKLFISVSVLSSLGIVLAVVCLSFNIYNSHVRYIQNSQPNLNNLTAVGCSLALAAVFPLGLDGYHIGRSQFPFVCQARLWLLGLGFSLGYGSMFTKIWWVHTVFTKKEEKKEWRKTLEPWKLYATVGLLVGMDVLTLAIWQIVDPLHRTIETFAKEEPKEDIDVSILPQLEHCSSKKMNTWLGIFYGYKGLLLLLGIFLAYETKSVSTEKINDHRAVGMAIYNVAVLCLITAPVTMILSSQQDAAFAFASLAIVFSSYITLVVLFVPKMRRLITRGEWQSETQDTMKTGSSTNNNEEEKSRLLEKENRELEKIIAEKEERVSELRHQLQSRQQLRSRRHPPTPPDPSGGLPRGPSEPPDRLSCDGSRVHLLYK
T3 sequence (O88871 41-940 partner): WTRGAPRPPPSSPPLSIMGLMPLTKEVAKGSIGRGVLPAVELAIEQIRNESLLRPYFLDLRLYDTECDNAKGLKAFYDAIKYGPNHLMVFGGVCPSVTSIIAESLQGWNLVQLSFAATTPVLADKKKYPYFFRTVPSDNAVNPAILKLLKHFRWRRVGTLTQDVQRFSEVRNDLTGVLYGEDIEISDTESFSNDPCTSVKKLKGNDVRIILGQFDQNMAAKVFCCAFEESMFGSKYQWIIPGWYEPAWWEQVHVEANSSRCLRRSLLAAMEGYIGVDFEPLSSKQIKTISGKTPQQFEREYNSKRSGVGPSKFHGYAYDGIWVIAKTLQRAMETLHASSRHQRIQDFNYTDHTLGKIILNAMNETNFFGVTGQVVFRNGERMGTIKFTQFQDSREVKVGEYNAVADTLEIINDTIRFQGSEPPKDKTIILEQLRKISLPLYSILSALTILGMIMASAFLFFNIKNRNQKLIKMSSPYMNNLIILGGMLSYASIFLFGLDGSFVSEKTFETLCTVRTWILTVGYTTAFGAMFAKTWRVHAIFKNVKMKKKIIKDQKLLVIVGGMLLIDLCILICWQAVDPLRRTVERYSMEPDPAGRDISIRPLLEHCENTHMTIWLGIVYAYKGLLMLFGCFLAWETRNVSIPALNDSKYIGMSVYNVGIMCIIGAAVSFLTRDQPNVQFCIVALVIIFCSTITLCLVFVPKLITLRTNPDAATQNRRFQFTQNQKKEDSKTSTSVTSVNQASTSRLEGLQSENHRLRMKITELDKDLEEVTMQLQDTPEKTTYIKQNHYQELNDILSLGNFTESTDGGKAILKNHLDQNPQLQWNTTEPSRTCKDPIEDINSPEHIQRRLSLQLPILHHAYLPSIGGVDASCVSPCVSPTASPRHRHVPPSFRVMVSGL
Sequence of human rho-2 receptors (P28476 21-465): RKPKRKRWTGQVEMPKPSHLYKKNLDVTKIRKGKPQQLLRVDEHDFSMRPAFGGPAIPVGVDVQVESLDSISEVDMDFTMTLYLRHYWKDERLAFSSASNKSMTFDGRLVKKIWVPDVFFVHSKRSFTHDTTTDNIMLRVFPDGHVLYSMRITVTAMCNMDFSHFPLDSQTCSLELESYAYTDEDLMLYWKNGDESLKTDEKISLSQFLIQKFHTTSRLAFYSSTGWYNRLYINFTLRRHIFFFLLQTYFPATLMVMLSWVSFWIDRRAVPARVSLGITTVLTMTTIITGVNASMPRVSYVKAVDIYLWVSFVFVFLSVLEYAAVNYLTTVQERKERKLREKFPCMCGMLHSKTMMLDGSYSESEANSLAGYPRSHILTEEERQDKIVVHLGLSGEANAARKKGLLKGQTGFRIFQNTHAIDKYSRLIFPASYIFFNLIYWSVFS
T2 sequence (P24046 22-479): as the sequence (P24046 22-479) above

## NC/C=C\[PH](=O)O [CGP70522, [(Z)-3-aminopropen-1-yl]phosphinic acid]
GABAA [1]; read-out: GABAA receptor affinity, IC50
  IC50: 6.6 µM
[2]
  Activation of Cl− channel current by compound on its own: did not activate any current on their own
  IC50: > 300 µM
  Mode of antagonism: competitive antagonists
[2]; 300 μM
  Activation of the receptor by compound alone: do not activate the receptor
  Effect on GABA response when co-applied with GABA (1 μM): the GABA response is blocked or reduced

## NCCCP(=O)(O)CC1CCCCC1 [CGP46381, 3-aminopropyl(cyclohexylmethyl)phosphinic acid]
[2]; screened at 100 μM
  Effect as agonist or antagonist at GABAC receptors: no effect as either agonists or antagonists

## NC/C=C/C(=O)O [TACA, trans-4-aminocrotonic acid]
GABAA [3]
  IC50: 0.14 µM
GABAC receptors
  Kd: 0.6 µM
[2]
  Activation of Cl− channel current by compound on its own: activated the Cl^− channel
  nH (Hill Coefficient): 2.4 ± 0.2
  Maximal dose current as % of the maximal GABA activated current: 95%
[2]; read-out: EC50 (effective dose that activates 50% of the maximal current)
  EC50: 0.44 ± 0.02 µM

## O=C(O)C1=CCNCC1 [Isoguvacine]
GABAA [3]
  IC50: 1.4 µM
GABAC (human r1)
  EC50: 99 µM

## CP(=O)(O)/C=C/CN [CGP44530, [(E)-3-Aminopropen-1-yl]methylphosphinic acid]
GABAA [1]
  GABAA receptor affinity, IC50: inactive at 100
[2]
  Activation of Cl− channel current by compound on its own: did not activate any current on their own
  Kb: 8.6 ± 1.6 µM
  Slope of Schild Plot: 1.01
  nH (Hill Coefficient): 2.4 ± 0.5
  IC50: 5.5 µM and 5.53 µM
  Mode of antagonism: competitive antagonists
[2]; 100 μM
  Activation of the receptor by compound alone: do not activate the receptor
  Effect on GABA response when co-applied with GABA (1 μM): the GABA response is blocked or reduced
[2]; [Antagonist] 10 μM
  nH of GABA curve in the presence of antagonist: 2.6 ± 0.2
[2]; [Antagonist] 30 μM
  nH of GABA curve in the presence of antagonist: 3.0 ± 0.1
[2]; [Antagonist] 100 μM
  nH of GABA curve in the presence of antagonist: 3.7 ± 0.4
GABAB [4]
  IC50: 0.65 µM

## NC/C=C\C(=O)O [CACA, cis-4-aminocrotonic acid]
GABAA [3]
  IC50: 25 µM
GABAC receptors
  Kd: 74 µM
[2]
  Activation of Cl− channel current by compound on its own: activated the Cl^− channel
  nH (Hill Coefficient): 2.2 ± 0.3
  Maximal dose current as % of the maximal GABA activated current: 75%
[2]; EC50 (effective dose that activates 50% of the maximal current)
  EC50: 37.4 µM and 37 µM

## CP(=O)(O)CCCN [CGP35024, (3-aminopropyl)methylphosphinic acid]
GABAA [1]
  GABAA receptor affinity, IC50: inactive at 10^k
GABAC receptors
  Kb: 0.8 µM
[2]
  Activation of Cl− channel current by compound on its own: did not activate any current on their own
  Kb: 0.58 ± 0.14 µM
  Slope of Schild Plot: 1.14
  nH (Hill Coefficient): 1.8 ± 0.1
  IC50: 0.75 ± 0.07 µM
  Mode of antagonism: competitive antagonists
[2]; [Antagonist] 3 μM
  nH of GABA curve in the presence of antagonist: 2.3 ± 0.1
[2]; [Antagonist] 10 μM
  nH of GABA curve in the presence of antagonist: 2.2 ± 0.2
[2]; [Antagonist] 30 μM
  nH of GABA curve in the presence of antagonist: 1.9 ± 0.2

## NCCCP(=O)(O)O [3-APA, 3-aminopropylphosphonic acid]
GABAC receptors
  Kb: 10 µM

## CP(=O)(O)C1CCNCC1 [PMPA, piperidine-4-(methyl)phosphinic acid]
Human rho-2 receptors
  Kb: 4.2 ± 0.2 µM
GABAA [5]
  IC50: > 100 µM
[2]
  Kb: 6 ± 1.2 µM
  IC50: 6 µM
GABAB [6]
  IC50: > 1000 µM
